Data on one molecule can be found in US11950594B2, “Methods and compositions for inhibiting formation of biofilms” (INSTITUTE OF MICROBIOLOGY, CHINESE ACADEMY OF SCIENCES, priority 2019, dated 2024).

Test [1] deals with Pseudomonas aeruginosa PAO1 biofilm. Description: Biofilm assay (96-well PVC plate, crystal violet). Type of test: cell-based. As for the experimental part:
1% inoculation amount of the bacterial solution cultured overnight was inoculated into 100 μL Jensen liquid medium. Different equal amounts of bacteria solution with C1 to C12, respectively, or without any additional substance were cultured in a 96-well polyvinyl chloride (PVC) plate (costar) overnight at 30° C. without agitation.
The bacterial biomass adsorbed on the 96-well PVC plate was detected by a crystal violet method, and steps were described as below. (1) The non-attached bacteria were removed using a pipettor, then the wells were gently rinsed with normal saline for 3 times. (2) A volume of 120 μL 0.1% crystal violet solution was added to stain the firmly attached bacterial cells in each well, which then staying static at room temperature for 30 min. (3) The PVC plate was taken out, the crystal violet solution was removed with a pipettor, and the non-attached crystal violet solution was washed with normal saline. (4) The crystal violet attached onto the PVC plate was dissolved with 200 μL of 30% acetic acid solution. The OD value of the acetic acid solution in each well was measured at 560 nm with a spectrophotometer.

A further test relates to LasR. Description: QS gene expression, GFP promoter fusion. Type of test: cell-based, Pseudomonas aeruginosa. The following applies: FIGS. 8A to 8D. The source says:
(§1) The QS system may regulate the formation of biofilm and the expression of multiple virulence factors. Whether the coumarin-chalcone compound C9 influences the QS regulation system was further studied. In the embodiment, a green fluorescent protein (GFP) was used as a reporter gene to examine the influence of the coumarin-chalcone compound C9 on the QS system. In this experiment, the transcription regulator genes (including LasR, RhIR, and PqsR) in three QS systems of Pseudomonas aeruginosa were used to study the gene expression of the QS system. By PCR expansion, promoter regions of the three genes were transcriptionally fused with a promoterless GFP fusion expression vector pProbe-AT, respectively, to construct transcription fusion plasmids that can indicate the expression level of LasR, RhIR, and PqsR genes, which were used as representatives of the expression of the three QS systems.
(§2) The overnight cultured bacterial solution was inoculated into the freshly prepared LB liquid medium to make its OD600 at 0.25, and then cultured for 2 h. Fluorescence was measured at 4 h, 8 h, 12 h, 16 h, 20 h, 24 h, respectively, and the measurement was performed in a 96-well plate. Bacterial growth was monitored by measuring OD600. The gene expression level was normalized by dividing the fluorescence value by the OD600 value of each sample.
(§3) The effects of the coumarin-chalcone compound C9 on the transcription of the three known QS regulators LasR, RhIR, and PqsR were examined by gfp fusion. FIGS. 8A to 8D are schematic diagrams illustrating the inhibition of QS systems in P. aeruginosa by compound C9. The transcription of QS-related genes (LasI, LasR, RhII, RhIR, PqsA, and PqsR) was indicated by the green fluorescent intensity of GFP-tagged promoter region through pPROBE-AT′ plasmid, the data of a blank group, a control group, and an experimental group treated with a coumarin-chalcone compound C9 were presented.

The next test relates to PqsR. In words: QS gene expression, GFP promoter fusion. It counts as cell-based, Pseudomonas aeruginosa. To be noted: FIGS. 8A to 8D.
From the text: as §1, §2, §3

Another test deals with RhIR. In words: QS gene expression, GFP promoter fusion. It counts as cell-based, Pseudomonas aeruginosa. To be noted: FIGS. 8A to 8D.
From the text: as §1, §2, §3

The test system of test [2] is Pseudomonas aeruginosa. Description: Virulence in cabbage model. It counts as in vivo. To be noted: C9 5 mM, 37° C., 36 hours, CFU. As for the experimental part:
The PAO1 culture inoculated with the coumarin-chalcone compound C9 (5 mM) was injected into a cabbage model and incubated at 37° C. for 36 hours. Then the colony phenotype was observed and colony-forming units (CFU) were calculated.
In the embodiment, the cabbage model was used to carry out the vivo experiment in vivo to study whether the coumarin-chalcone compound C9 affects the virulence of Pseudomonas aeruginosa. FIG. 9 is a schematic diagram illustrating virulences of bacteria of a blank group, a control group, and an experimental group treated with a coumarin-chalcone compound C9.

The subject of test [3] is Pseudomonas aeruginosa. In words: MIC of antibiotics, Calgary biofilm device. Type of test: cell-based. The following applies: treated with C9 5 mM, versus untreated group. As for the experimental part: MIC and MBEC values of a biofilm formed on a peg of a […] biofilm device (CGM and CBD) treated with the coumarin-chalcone compound C9 were measured according to methods (Innovotech) in MBECTM high throughput experimental operation manual. Biofilm treated with the coumarin-chalcone compound C9 (5 mM) was cultured in an antibiotic-containing medium in a 96-well plate for 24 h, and the MIC value was obtained by measuring the OD600 of planktonic cells of the above samples. To determine the MBEC value, the biofilm treated with the coumarin-chalcone compound C9 (5 mM) was cultured in an antibiotic-containing medium in a 96-well plate for 24 h, then the biofilm was ultrasonically crushed and subsequently incubated at 37° C. for another 24 hours. Biomass of newly formed biofilms was recorded to indicate the corresponding MBEC value.

In general, inhibition refers to the percentage by which the read-out fell short of the control.

For the molecule `COc1cccc(/C=C/C(=O)c2cc3ccccc3oc2=O)c1` [Compound C9], the “formation of Pseudomonas aeruginosa biofilm” value in test [1] (C9 in a range of 1 mM to 5 mM) is “significantly inhibited”. In addition, in test [1] (FIG. 1, overnight at 30° C., Jensen medium), the “reduction of the contents of Pseudomonas aeruginosa PAO1 biofilm” value amounted to 70%. The inhibition at 5000 µM in test [1] (Pseudomonas aeruginosa, PAO1, concentration of C9 5 mM, read-out: inhibition rate of biofilm) amounted to 70%. Also, in the test with LasR, the “transcription of LasR” value was “downregulated”. The “transcription of PqsR” value in the test on PqsR was “downregulated”. Further, in the test with RhIR, the “transcription of RhIR” value is given as “downregulated”. The “reduction of virulence of Pseudomonas aeruginosa in the cabbage model” value in the test with Pseudomonas aeruginosa [2] was 60%. Besides, in the test with Pseudomonas aeruginosa [3], the “MIC of a biofilm against ciprofloxacin” value is listed as “significantly lower” and the “MIC of a biofilm against tobramycin” value is listed as “significantly lower”.
